Values quoted from earlier work in patent US20240285546A1, “TRANSDERMAL THERAPEUTIC SYSTEM CONTAINING AGOMELATINE” (LTS LOHMANN Therapie-Systeme AG, priority 2019, published 2024).

Key:
[1] = not given; remark: listed apart in the source

Volume of distribution (in steady state): 35 L
Oral absorption (oral agomelatine): > 80%
Overall bioavailability (oral agomelatine): less than 5%
Increase in agomelatine exposure (AUC and cmax) (patients with moderate hepatic impairment compared to healthy subjects): up to 140 fold
Solubility in water [1]: poorly soluble
SMILES: COc1ccc2cccc(CCNC(C)=O)c2c1 [agomelatine, N-(2-(7-Methoxy-1-naphthyl)ethyl)acetamide]
